Data from US7560454B2, “Condensed azepines as vasopressin agonists” (Vantia Limited, priority 2000, dated 2009).

Tested on: Brattleboro rat
Test: inhibition of urine output in Brattleboro rats
Format: in vivo
Conditions: 1 mg/kg p.o. in methylcellulose, vs control animals
Protocol: The Brattleboro rat is a recognised model for vasopressin deficiency (for a review see F D Grant, “Genetic models of vasopressin deficiency”, Exp. Physiol. 85, 203S-209S, 2000). […] Compounds of the invention were administered to Brattleboro rats (0.1-10 mg/kg p.o. in methylcellulose. Urine was collected hourly and volumes were compared with control animals. Animals had free access to food and water throughout the experiment. Representative results are given in the Table. Results for Desmopressin are given for comparison.

## Cc1cc(C(=O)N2CCCCc3ccccc32)ccc1CNC(=O)N1CCC[C@H]1C(=O)N(C)C [Example 1, 1-(2-Methyl-4-(2,3,4,5-tetrahydro-1-benzazepin-1-ylcarbonyl)benzylcarbamoyl)-L-proline-N,N-dimethylamide]
  % inhibition of urine output (at 1 hour): 82%
